Converted amounts (≈) assume the structure as drawn.

For data set [1], the system named is Pseudomonas aeruginosa. In words: Antibacterial activity against Pseudomonas aeruginosa ATCC13525 after 24 hrs by MTT assay. It is filed as functional. The following applies: ATCC13525, 24 h. A general note: Tetrazolium dyes change colour on reduction, which living cells bring about.
Data set [2] relates to Escherichia coli. Nature of the data set: Antibacterial activity against Escherichia coli ATCC35218 after 24 hrs by MTT assay. The following applies: ATCC35218, 24 h. It is filed as functional.
The nature of data set [3]: Toxicity in erythrocytes assessed as hemolytic activity. Format: cell-based. The following applies: erythrocyte.
The subject of data set [4] is Bacillus subtilis. In words: Antibacterial activity against Bacillus subtilis ATCC6633 after 24 hrs by MTT assay. Format: functional. The following applies: ATCC6633, 24 h.
In data set [5] the target is T1, 3-oxoacyl-[acyl-carrier-protein] synthase 3 (Escherichia coli, UniProt C3TDZ2).
T1 sequence (C3TDZ2 whole entry): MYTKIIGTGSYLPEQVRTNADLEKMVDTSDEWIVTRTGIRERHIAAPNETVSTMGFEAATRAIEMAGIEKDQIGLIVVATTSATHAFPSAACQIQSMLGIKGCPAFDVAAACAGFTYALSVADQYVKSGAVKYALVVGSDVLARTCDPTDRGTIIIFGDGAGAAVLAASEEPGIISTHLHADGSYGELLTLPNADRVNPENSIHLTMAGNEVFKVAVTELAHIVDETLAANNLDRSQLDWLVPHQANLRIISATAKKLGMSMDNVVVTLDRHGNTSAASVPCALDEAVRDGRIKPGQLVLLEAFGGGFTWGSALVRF
In words: Inhibition of N-terminal His-tagged Escherichia coli FabH expressed in Escherichia coli BL21 (DE3) using [3H]acetyl-coA after 25 mins by liquid scintillation counting.

Data set [6] concerns Staphylococcus aureus. In words: Antibacterial activity against Staphylococcus aureus ATCC6538 after 24 hrs by MTT assay. Format: functional. The following applies: ATCC6538, 24 h.

One may read the MIC as the lowest concentration found to suppress growth. A low value points to greater potency. As a reminder, the IC50 is the concentration at which inhibition is half-maximal. A lower IC50 goes with inhibition by little substance. Turning to `Cc1ncc([N+](=O)[O-])n1CC(C)OC(=O)/C=C/c1ccc(-c2ccccc2)cc1` (stereo unspecified), the MIC in data set [1] turned out to be 3.13 µg/mL (≈ 8 µM); in data set [2], 1.56 µg/mL (≈ 3.99 µM); in data set [4], 6.25 µg/mL (≈ 16 µM); in data set [6] it was 1.56 µg/mL (≈ 3.99 µM). The MHC in data set [3] is above 10 mg/mL. Half-maximal inhibition in data set [5] (IC50) required 2.5 µM.
On to `Cc1ncc([N+](=O)[O-])n1CC(C)OC(=O)/C=C/c1ccccc1Br` (stereo unspecified), for which the MIC in data set [1] worked out at 25 µg/mL (≈ 63.4 µM); in data set [2] it was 25 µg/mL (≈ 63.4 µM); in data set [4], 50 µg/mL (≈ 127 µM); in data set [6] it was 25 µg/mL (≈ 63.4 µM). The MHC in data set [3] is above 10 mg/mL. The compound further returned an IC50 in data set [5] of 40.1 µM.
For `Cc1ncc([N+](=O)[O-])n1CC(C)OC(=O)/C=C/c1ccc(Br)cc1` (stereo unspecified), the MIC in data set [1] was determined as 6.25 µg/mL (≈ 15.9 µM); in data set [2], 6.25 µg/mL (≈ 15.9 µM); in data set [4], 3.13 µg/mL (≈ 7.94 µM); in data set [6], 3.13 µg/mL (≈ 7.94 µM). Besides, the MHC in data set [3] is above 10 mg/mL. The IC50 in data set [5] was found to be 15.6 µM.
As usually defined, the Ki is the equilibrium dissociation constant of an inhibitor or competing ligand from its target. A lower Ki goes with tighter binding. Take `Cc1ncc([N+](=O)[O-])n1CC(C)OC(=O)/C=C/c1ccccc1` (stereo unspecified): the MIC in data set [1], in data set [2], in data set [4] and in data set [6] was above 100 µg/mL throughout. The affinity in data set [5], expressed as Ki, was 1.32 pM.
Consider `Cc1ncc([N+](=O)[O-])n1CC(C)OC(=O)/C=C/c1ccc(Cl)cc1` (stereo unspecified), for which the MIC is 25 µg/mL (≈ 71.5 µM) in data set [1], 12.5 µg/mL (≈ 35.7 µM) in data set [2], 12.5 µg/mL (≈ 35.7 µM) in data set [4] and 25 µg/mL (≈ 71.5 µM) in data set [6]. For the same compound, the MHC in data set [3] was above 10 mg/mL. Also, the IC50 in data set [5] is 34.3 µM.
On to `Cc1ncc([N+](=O)[O-])n1CC(C)OC(=O)/C=C/c1ccc(OCc2ccccc2)cc1` (stereo unspecified), for which the MIC was 6.25 µg/mL (≈ 14.8 µM) in data set [1], 3.13 µg/mL (≈ 7.43 µM) in data set [2], 6.25 µg/mL (≈ 14.8 µM) in data set [4] and 3.13 µg/mL (≈ 7.43 µM) in data set [6]. For the same compound, in data set [3], the MHC was above 10 mg/mL. Also, half-maximal inhibition in data set [5] (IC50) was put at 6.7 µM.
Take `Cc1ncc([N+](=O)[O-])n1CC(C)OC(=O)/C=C/c1cccs1` (stereo unspecified): the MIC in data set [1] was 50 µg/mL (≈ 156 µM); in data set [2], 50 µg/mL (≈ 156 µM); in data set [4], above 100 µg/mL; in data set [6], 50 µg/mL (≈ 156 µM).
As for `COc1cccc(/C=C/C(=O)OC(C)Cn2c([N+](=O)[O-])cnc2C)c1` (stereo unspecified), the minimum inhibitory concentration (MIC) in data set [1], in data set [2], in data set [4] and in data set [6] was above 100 µg/mL each time. In data set [5], this compound came in with a Ki of 2.73 pM.
Take `COc1ccccc1/C=C/C(=O)OC(C)Cn1c([N+](=O)[O-])cnc1C` (stereo unspecified): the MIC in data set [1], in data set [2], in data set [4] and in data set [6] was above 100 µg/mL in each case. The compound further displayed a Ki in data set [5] of 1.79 pM.
In the case of `Cc1ccc(/C=C/C(=O)OC(C)Cn2c([N+](=O)[O-])cnc2C)cc1` (stereo unspecified), the MIC in data set [1] is 50 µg/mL (≈ 152 µM); in data set [2], 100 µg/mL (≈ 304 µM); in data set [4] it was above 100 µg/mL; in data set [6], above 100 µg/mL.
For `Cc1ncc([N+](=O)[O-])n1CC(C)OC(=O)/C=C/c1ccc2ccccc2c1` (stereo unspecified), the MIC came to 50 µg/mL (≈ 137 µM) in data set [1], 50 µg/mL (≈ 137 µM) in data set [2], 50 µg/mL (≈ 137 µM) in data set [4] and 100 µg/mL (≈ 274 µM) in data set [6].
`Cc1ncc([N+](=O)[O-])n1CC(C)OC(=O)/C=C/c1ccc(N(C)C)cc1` (stereo unspecified): the MIC was found to be 6.25 µg/mL (≈ 17.4 µM) in data set [1], 6.25 µg/mL (≈ 17.4 µM) in data set [2], 12.5 µg/mL (≈ 34.9 µM) in data set [4] and 6.25 µg/mL (≈ 17.4 µM) in data set [6]. Moreover, the MHC in data set [3] was above 10 mg/mL. The IC50 in data set [5] was found to be 19.8 µM.
As for `Cc1ncc([N+](=O)[O-])n1CC(C)OC(=O)/C=C/c1ccccc1Cl` (stereo unspecified), the MIC in data set [1] worked out at 25 µg/mL (≈ 71.5 µM); in data set [2], 50 µg/mL (≈ 143 µM); in data set [4], 50 µg/mL (≈ 143 µM); in data set [6] it was 50 µg/mL (≈ 143 µM).
Take `Cc1ncc([N+](=O)[O-])n1CC(C)OC(=O)/C=C/c1ccccc1F` (stereo unspecified): the MIC in data set [1], in data set [2], in data set [4] and in data set [6] was above 100 µg/mL each time.
Turning to `Cc1ncc([N+](=O)[O-])n1CC(C)OC(=O)/C=C/c1cccc2ccccc12` (stereo unspecified), the MIC amounted to 50 µg/mL (≈ 137 µM) in data set [1], 25 µg/mL (≈ 68.4 µM) in data set [2], 25 µg/mL (≈ 68.4 µM) in data set [4] and 50 µg/mL (≈ 137 µM) in data set [6]. The MHC in data set [3] was above 10 mg/mL. Further, the IC50 in data set [5] turned out to be 48.9 µM.
Consider `O=C(O)/C=C/c1ccccc1` [CINNAMIC ACID], for which the MHC in data set [3] was above 10 mg/mL. Further, inhibition in data set [5] was half-maximal at 43.4 µM (IC50).
Turning to `NC[C@H]1O[C@H](O[C@H]2[C@H](O)[C@@H](O[C@H]3O[C@H](CO)[C@@H](O)[C@H](N)[C@H]3O)[C@H](N)C[C@@H]2N)[C@H](O)[C@@H](O)[C@@H]1O` [KANAMYCIN], the MIC in data set [1] worked out at 3.13 µg/mL (≈ 6.46 µM); in data set [2], 3.13 µg/mL (≈ 6.46 µM); in data set [4] it was 1.56 µg/mL (≈ 3.22 µM); in data set [6] it was 1.56 µg/mL (≈ 3.22 µM).
Consider `Cc1ncc([N+](=O)[O-])n1CC(C)O` (stereo unspecified) [SECNIDAZOLE], for which, in data set [3], the MHC is above 10 mg/mL. Further, in data set [5], the IC50 came to 28.5 µM.
On to `Cc1ncc([N+](=O)[O-])n1CC(C)OC(=O)/C=C/c1cccc(F)c1` (stereo unspecified), for which the MIC was 3.13 µg/mL (≈ 9.39 µM) in data set [1], 3.13 µg/mL (≈ 9.39 µM) in data set [2], 6.25 µg/mL (≈ 18.8 µM) in data set [4] and 6.25 µg/mL (≈ 18.8 µM) in data set [6]. Besides, the MHC in data set [3] was above 10 mg/mL. This compound also gave an IC50 in data set [5] of 8.2 µM.
Take `Cc1ncc([N+](=O)[O-])n1CC(C)OC(=O)/C=C/c1ccc(Cl)cc1Cl` (stereo unspecified): the MIC in data set [1] stood at 6.25 µg/mL (≈ 16.3 µM); in data set [2], 3.13 µg/mL (≈ 8.15 µM); in data set [4] it was 6.25 µg/mL (≈ 16.3 µM); in data set [6], 12.5 µg/mL (≈ 32.5 µM). For the same compound, the MHC in data set [3] is above 10 mg/mL. In data set [5], this compound returned an IC50 of 9.4 µM.
Regarding `Cc1ncc([N+](=O)[O-])n1CC(C)OC(=O)/C=C/c1ccc(F)cc1` (stereo unspecified), the MIC in data set [1] turned out to be 50 µg/mL (≈ 150 µM); in data set [2], 50 µg/mL (≈ 150 µM); in data set [4] it was 50 µg/mL (≈ 150 µM); in data set [6], 100 µg/mL (≈ 300 µM).
Regarding `Cc1ncc([N+](=O)[O-])n1CC(C)OC(=O)/C=C/c1cccc(Br)c1` (stereo unspecified), the MIC in data set [1] was 12.5 µg/mL (≈ 31.7 µM); in data set [2], 12.5 µg/mL (≈ 31.7 µM); in data set [4], 25 µg/mL (≈ 63.4 µM); in data set [6], 12.5 µg/mL (≈ 31.7 µM). Further, in data set [3], the MHC is above 10 mg/mL. This compound also had an IC50 in data set [5] of 27.5 µM.
`COc1ccc(/C=C/C(=O)OC(C)Cn2c([N+](=O)[O-])cnc2C)cc1` (stereo unspecified): the MIC in data set [1] was above 100 µg/mL; in data set [2], above 100 µg/mL; in data set [4], 50 µg/mL (≈ 145 µM); in data set [6], 50 µg/mL (≈ 145 µM).
